Results taken from patent US9579319B2 (Redx Pharma PLC, priority 2013, dated 2017).

What follows are molecules tested against Hedgehog signalling pathway (assay: Gli-reporter NIH3T3 luciferase assay (Hedgehog pathway inhibition)). Conditions: Gli-reporter NIH-3T3 cells, recombinant mouse sonic hedgehog, 24 hours, luminescence; read-out: Gli luc IC50.
Type: cell-based
Method: In vitro biological evaluation of compounds of the invention was carried out using the procedure detailed below. The procedure provides activity data for the compounds of the invention against the Hedgehog signalling pathway. The activity is represented as IC50 values in Table 12 below.
The Gli-reporter NIH3T3 cell line (BPS Biosciences) was grown according to the suppliers recommendations. Briefly, cells were maintained in growth medium (DMEM supplemented with 10% calf serum, 1% Penicillin/Streptomycin, and 500 µg/mL of Geneticin) and grown at 37° C., 5% CO2. In order to passage cells they were first rinsed with phosphate buffered saline before the addition of 0.05% Trypsin/EDTA. Fresh growth media was added and the cells were transferred to a centrifuge tube, spun and resuspended at an appropriate cell density.
Gli-reporter NIH-3T3 cells were seeded at 20,000 cells/well into 96 well, poly-D-lysine coated white clear bottomed full area TC plates in growth media (without geneticin). Three wells were left with just media as cell free controls. Cells were then incubated for 24 hours at 37° C. in a 5% CO2.
Serial dilutions of the test compounds were prepared in 100% DMSO. 10 μl of compound or DMSO from each well was pipetted into a sterile, 0.5 ml deep well conical bottomed 96 well plate (intermediate plate). 190 μl of warmed assay media (Opti-MEM supplemented with 0.5% calf serum, 1% non-essential amino acids, 1 mM sodium pyruvate, 10 mM HEPES, 1% penicillin/Streptomycin) was then added to each well and mixed five times at 180 μl by electronic pipette to ensure homogeneity of the compound solution. This 1:20 dilution gives a top concentration of 50 μM in 5% DMSO, 95% assay media. 10 μl was pipetted from each well of the intermediate plate into a second deep well sterile plate. 490 μl of warm assay media was then added to each well and mixed five times at 300 μl. This gives a final top concentration of 1 μM in 0.1% DMSO.
After the 24 hour incubation, media was carefully removed by pipette and replaced with 45 μl of compound dilutions in triplicate. This was incubated for one hour at 37° C. in a 5% CO2. After an hour, 5 μl 10 μg/mL recombinant mouse sonic hedgehog (R&D Systems) was added to each well and the plates were incubated for a further 24 hours at 37° C., 5% CO2.
After 24 hours, plates were removed from the incubator and left to acclimatise to room temperature for 20 minutes. 50 μl of OneGLO assay reagent (Promega) was then added to each well and the plates gently shaken for a further 30 minutes. Plates were then read for luminescence on the EnVision plate reader (PerkinElmer).

Molecule	IC50 [nM]
1-[4,5-dimethyl-6-(2-methylpyrazol-yl)pyridazin-3-yl]-N-methyl-N-[[2-(trifluoromethoxy)phenyl]methyl]piperidin-4-amine [Example 89]	> 200

Same assay, conditions: NIH3T3; Gli-reporter NIH-3T3 cells, recombinant mouse sonic hedgehog, 24 hours, luminescence; read-out: Category (Hedgehog pathway inhibition activity, IC50)

Molecule	IC50 [nM]
COc1cccc(NC(=O)NC2CCN(c3nnc(-c4ccnn4C)c4ccccc34)CC2)c1 [Example 24, 1-(3-methoxyphenyl)-3-[1-[4-(2-methylpyrazol-3-yl)phthalazin-1-yl]-4-piperidyl]urea]	< 10
COc1cccc(CN(C)C2CCN(c3nnc(-c4ccnn4C)c4ccccc34)CC2)c1 [Example 62, N-[(3-methoxyphenyl)methyl]-N-methyl-1-[4-(2-methylpyrazol-3-yl)phthalazin-1-yl]piperidin-4-amine]	10 to 200
Cn1nccc1-c1nnc(N2CCC(NCc3ccc(F)nc3C(F)(F)F)CC2)c2ccccc12 [Example 18, N-[[6-fluoro-2-(trifluoromethyl)-3-pyridyl]methyl]-1-[4-(2-methylpyrazol-3-yl)phthalazin-1-yl]piperidin-4-amine]	10 to 200
CN(Cc1ccc(F)cc1C(F)(F)F)C1CCN(c2nnc(-c3ccnn3C)c3ccncc23)CC1 [Example 47, N-[[4-fluoro-2-(trifluoromethyl)phenyl]methyl]-N-methyl-1-[1-(2-methylpyrazol-3-yl)pyrido[3,4-d]pyridazin-4-yl]piperidin-4-amine]	< 10
CSc1ccccc1CNC1CCN(c2nnc(-c3ccnn3C)c3ccccc23)CC1 [Example 17, 1-[4-(2-methylpyrazol-3-yl)phthalazin-1-yl]-N-[(2-methylsulfanylphenyl)methyl]piperidin-4-amine]	10 to 200
Cn1nccc1-c1nnc(N2CCC(Nc3ccc(F)cc3C(F)(F)F)CC2)c2ccccc12 [Example 53, N-[4-fluoro-2-(trifluoromethyl)phenyl]-1-[4-(2-methylpyrazol-3-yl)phthalazin-1-yl]piperidin-4-amine]	< 10
Cn1nccc1-c1nnc(N2CCC(NCc3cccc(OC(F)(F)F)c3)CC2)c2ccccc12 [Example 34, 1-[4-(2-methylpyrazol-3-yl)phthalazin-1-yl]-N-[[3-(trifluoromethoxy)phenyl]methyl]piperidin-4-amine]	10 to 200
Cn1nccc1-c1nnc(N2CCC(NCc3ccc(OC(F)(F)F)cc3)CC2)c2ccccc12 [Example 20, 1-[4-(2-methylpyrazol-3-yl)phthalazin-1-yl]-N-[[4-(trifluoromethoxy)phenyl]methyl]piperidin-4-amine]	10 to 200
CN(Cc1ccc(F)cc1F)C1CCN(c2nnc(-c3ccnn3C)c3ccccc23)CC1 [Example 67, N-[(2,4-difluorophenyl)methyl]-N-methyl-1-[4-(2-methylpyrazol-3-yl)phthalazin-1-yl]piperidin-4-amine]	10 to 200
Cn1nccc1-c1nnc(N2CCC(NC(=O)Nc3cccc(F)c3)CC2)c2ccccc12 [Example 16, 1-(3-fluorophenyl)-3-[1-[4-(2-methylpyrazol-3-yl)phthalazin-1-yl]-4-piperidyl]urea]	< 10
CN(Cc1ccc(F)cc1C(F)(F)F)C1CCN(c2nnc(-c3ccnn3C)c3ccccc23)C1 (centres unmarked) [Example 55, N-[[4-fluoro-2-(trifluoromethyl)phenyl]methyl]-N-methyl-1-[4-(2-methylpyrazol-3-yl)phthalazin-1-yl]pyrrolidin-3-amine]	10 to 200
COc1ccccc1CN(C)C1CCN(c2nnc(-c3ccnn3C)c3ccccc23)CC1 [Example 61, N-[(2-methoxyphenyl)methyl]-N-methyl-1-[4-(2-methylpyrazol-3-yl)phthalazin-1-yl]piperidin-4-amine]	200 to 2000
COc1cccc(CNC2CCN(c3nnc(-c4ccnn4C)c4ccccc34)CC2)c1 [Example 70, N-[(3-methoxyphenyl)methyl]-1-[4-(2-methylpyrazol-3-yl)phthalazin-1-yl]piperidin-4-amine]	10 to 200

Same assay, conditions: NIH3T3; Gli-reporter NIH-3T3 cells, recombinant mouse sonic hedgehog, 24 hours, luminescence; read-out: Gli luc IC50

Molecule	IC50 [nM]
CN(C1CCN(c2nnc(-c3ccnn3C)c3ccncc23)CC1)S(=O)(=O)c1ccc(F)cc1F [Example 102, 2,4-difluoro-N-methyl-N-[1-[1-(2-methylpyrazol-3-yl)pyrido[3,4-d]pyridazin-4-yl]-4-piperidyl]benzenesulfonamide]	10 to 200
Cn1nccc1-c1nnc(N2CCC(NCc3ccc(F)nc3C(F)(F)F)CC2)c2ccccc12 [Example 165, N-[[6-fluoro-2-(trifluoromethyl)-3-pyridyl]methyl]-1-[4-(2-methylpyrazol-3-yl)phthalazin-1-yl]piperidin-4-amine]	10 to 200
CN(Cc1ccc(F)cc1Cl)C1CCN(c2nnc(-c3ccnn3C)c3ccccc23)CC1 [Example 158, N-[(2-chloro-4-fluoro-phenyl)methyl]-N-methyl-1-[4-(2-methylpyrazol-3-yl)phthalazin-1-yl]piperidin-4-amine]	10 to 200
Cc1cc(-c2nnc(N3CCC(NCc4ccc(F)cc4C(F)(F)F)CC3)c(C)c2C)ccn1 [Example 122, 1-[4,5-dimethyl-6-(2-methyl-4-pyridyl)pyridazin-3-yl]-N-[[4-fluoro-2-(trifluoromethyl)phenyl]methyl]piperidin-4-amine]	> 200
CN(C(=O)Nc1ccc(F)cc1F)C1CCN(c2nnc(-c3ccnn3C)c3ccccc23)CC1 [Example 169, 3-(2,4-difluorophenyl)-1-methyl-1-[1-[4-(2-methylpyrazol-3-yl)phthalazin-1-yl]-4-piperidyl]urea]	< 10
CN(C(=O)Nc1ccc(F)cc1F)C1CCN(c2nnc(-c3ccnn3C)c3ncccc23)CC1 [Example 101, 3-(2,4-difluorophenyl)-1-methyl-1-[1-[8-(2-methylpyrazol-3-yl)pyrido[2,3-d]pyridazin-5-yl]-4-piperidyl]urea]	> 200
Cc1c(-c2ccnn2C)nnc(N2CCC(N(C)Cc3ccccc3C#N)CC2)c1C [Example 87, 2-[[[1-[4,5-dimethyl-6-(2-methylpyrazol-3-yl)pyridazin-3-yl]-4-piperidyl]-methyl-amino]methyl]benzonitrile]	10 to 200
Cc1c(-c2ccnn2C)nnc(N2CCC(N(C)Cc3ccccc3C(F)(F)F)CC2)c1C [Example 84, 1-[4,5-dimethyl-6-(2-methylpyrazol-3-yl)pyridazin-3-yl]-N-methyl-N-[[2-(trifluoromethyl)phenyl]methyl]piperidin-4-amine]	10 to 200
CSc1nccc(CN(C)C2CCN(c3nnc(-c4ccnn4C)c4ccccc34)CC2)n1 [Example 92, N-methyl-1-[4-(2-methylpyrazol-3-yl)phthalazin-1-yl]-N-[(2-methylsulfanylpyrimidin-4-yl)methyl]piperidin-4-amine]	10 to 200
Cc1c(-c2ccnn2C)nnc(N2CCC(N(C)C(=O)NC(C)(C)C)CC2)c1C [Example 152, 3-tert-butyl-1-[1-[4,5-dimethyl-6-(2-methylpyrazol-3-yl)pyridazin-3-yl]-4-piperidyl]-1-methyl-urea]	> 200
CN(Cc1ncccc1C(F)(F)F)C1CCN(c2nnc(-c3ccnn3C)c3ccccc23)CC1 [Example 147, N-methyl-1-[4-(2-methylpyrazol-3-yl)phthalazin-1-yl]-N-[[3-(trifluoromethyl)-2-pyridyl]methyl]piperidin-4-amine]	10 to 200
COc1cc(-c2nnc(N3CCC(NS(=O)(=O)c4ccc(F)cc4C(F)(F)F)CC3)c(C)c2C)ccn1 [Example 172, 4-fluoro-N-[1-[6-(2-methoxy-4-pyridyl)-4,5-dimethyl-pyridazin-3-yl]-4-piperidyl]-2-(trifluoromethyl)benzenesulfonamide]	> 1000
Cc1nc(C(F)(F)F)c(CN(C)C2CCN(c3nnc(-c4ccnn4C)c(C)c3C)CC2)s1 [Example 95, 1-[4,5-dimethyl-6-(2-methylpyrazol-3-yl)pyridazin-3-yl]-N-methyl-N-[[2-methyl-4-(trifluoromethyl)thiazol-5-yl]methyl]piperidin-4-amine]	10 to 200
CN(C(=O)NC(C)(C)C)C1CCN(c2nnc(-c3ccnn3C)c3c2CCC3)CC1 [Example 133, 3-tert-butyl-1-methyl-1-[1-[1-(2-methylpyrazol-3-yl)-6,7-dihydro-5H-cyclopenta[d]pyridazin-4-yl]-4-piperidyl]urea]	10 to 200
CN(C(=O)NC(C)(C)C)C1CCN(c2nnc(-c3ccnn3C)c3ncccc23)CC1 [Example 129, 3-tert-butyl-1-methyl-1-[1-[8-(2-methylpyrazol-3-yl)pyrido[2,3-d]pyridazin-5-yl]-4-piperidyl]urea]	> 200
